Measured values from ChEMBL document CHEMBL1126102, “2-(N'-aralkylidenehydrazino)adenosines: potent and selective coronary vasodilators” (J Med Chem, 1992).

Legend:
[1] = biological target: Adenosine A2 receptor; test: Tested for adenosine A2 receptor agonistic activity by determining coronary vasodilation; format: functional, Cavia porcellus
[2] = biological target: T1, Adenosine receptor A1 (Cavia porcellus, UniProt P47745); test: Tested for adenosine A1 receptor agonistic activity by determining concentration needed to prolong the stimulus-QRS interval by 50% of the maximum response; format: functional
T1 sequence (P47745 whole entry): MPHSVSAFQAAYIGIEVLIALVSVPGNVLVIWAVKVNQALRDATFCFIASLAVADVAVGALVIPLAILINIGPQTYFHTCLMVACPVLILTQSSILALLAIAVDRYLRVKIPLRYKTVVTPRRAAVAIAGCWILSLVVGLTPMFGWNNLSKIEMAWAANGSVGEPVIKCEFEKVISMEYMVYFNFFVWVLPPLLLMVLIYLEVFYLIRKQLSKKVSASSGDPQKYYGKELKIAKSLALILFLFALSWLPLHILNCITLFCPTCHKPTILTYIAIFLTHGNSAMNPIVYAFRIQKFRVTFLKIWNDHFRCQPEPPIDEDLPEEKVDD

SMILES: Nc1nc(N/N=C/c2ccncc2)nc2c1ncn2C1O[C@H](CO)[C@@H](O)[C@H]1O (stereo not given in full)
- -Log EC50 [1]: 7.96
- EC50 [2]: 26.3 µM

SMILES: Nc1nc(N/N=C/c2ccccc2Cl)nc2c1ncn2C1O[C@H](CO)[C@@H](O)[C@H]1O (stereo not given in full)
- -Log EC50 [1]: 8.12
- EC50 [2]: 49 µM

SMILES: Nc1nc(N/N=C/c2ccc(F)cc2)nc2c1ncn2C1O[C@H](CO)[C@@H](O)[C@H]1O (stereo not given in full)
- -Log EC50 [1]: 8.61
- EC50 [2]: 12.6 µM

SMILES: Nc1nc(N/N=C/c2cccc3ccccc23)nc2c1ncn2C1O[C@H](CO)[C@@H](O)[C@H]1O (stereo not given in full)
- -Log EC50 [1]: 8.02
- EC50 [2]: 0.832 µM

SMILES: Nc1nc(N/N=C/CCc2ccccc2)nc2c1ncn2C1O[C@H](CO)[C@@H](O)[C@H]1O (stereo not given in full)
- EC50 [2]: 66.1 µM

SMILES: NNc1nc(N)c2ncn(C3O[C@H](CO)[C@@H](O)[C@H]3O)c2n1 (stereo not given in full)
- -Log EC50 [1]: 7.1

SMILES: Nc1nc(N/N=C/c2ccc(CCC(=O)O)cc2)nc2c1ncn2C1O[C@H](CO)[C@@H](O)[C@H]1O (stereo not given in full)
- -Log EC50 [1]: 8.18
- EC50 [2]: 30.9 µM

SMILES: Nc1nc(N/N=C/c2cccc(Cl)c2)nc2c1ncn2C1O[C@H](CO)[C@@H](O)[C@H]1O (stereo not given in full)
- -Log EC50 [1]: 8.34
- EC50 [2]: 49 µM

SMILES: Cc1cccc(/C=N/Nc2nc(N)c3ncn(C4O[C@H](CO)[C@@H](O)[C@H]4O)c3n2)c1 (stereo not given in full)
- -Log EC50 [1]: 8.36
- EC50 [2]: 17 µM

SMILES: COc1cccc(/C=N/Nc2nc(N)c3ncn(C4O[C@H](CO)[C@@H](O)[C@H]4O)c3n2)c1 (stereo not given in full)
- -Log EC50 [1]: 7.91
- EC50 [2]: 19.5 µM

SMILES: C/C(=N\Nc1nc(N)c2ncn(C3O[C@H](CO)[C@@H](O)[C@H]3O)c2n1)c1cccs1 (stereo not given in full)
- -Log EC50 [1]: 7.55
- EC50 [2]: 8.91 µM

SMILES: Nc1nc(N/N=C/c2ccc3ccccc3c2)nc2c1ncn2C1O[C@H](CO)[C@@H](O)[C@H]1O (stereo not given in full)
- -Log EC50 [1]: 8.38
- EC50 [2]: 2.63 µM

SMILES: Nc1nc(N/N=C/c2ccccn2)nc2c1ncn2C1O[C@H](CO)[C@@H](O)[C@H]1O (stereo not given in full)
- -Log EC50 [1]: 8.24
- EC50 [2]: 41.7 µM

SMILES: Nc1nc(N/N=C/c2ccsc2)nc2c1ncn2C1O[C@H](CO)[C@@H](O)[C@H]1O (stereo not given in full)
- -Log EC50 [1]: 7.81
- EC50 [2]: 60.3 µM

SMILES: C/C(=N\Nc1nc(N)c2ncn(C3O[C@H](CO)[C@@H](O)[C@H]3O)c2n1)c1ccccc1 (stereo not given in full)
- -Log EC50 [1]: 7.9
- EC50 [2]: 3.02 µM

SMILES: Nc1nc(N/N=C/c2cccc(F)c2)nc2c1ncn2C1O[C@H](CO)[C@@H](O)[C@H]1O (stereo not given in full)
- -Log EC50 [1]: 8.47
- EC50 [2]: 9.12 µM

SMILES: Nc1nc(N/N=C/c2ccccc2)nc2c1ncn2C1O[C@H](CO)[C@@H](O)[C@H]1O (stereo not given in full)
- -Log EC50 [1]: 8.64
- EC50 [2]: 83.2 µM

SMILES: Nc1nc(N/N=C/c2ccccc2F)nc2c1ncn2C1O[C@H](CO)[C@@H](O)[C@H]1O (stereo not given in full)
- -Log EC50 [1]: 8.43
- EC50 [2]: 41.7 µM

SMILES: Nc1nc(N/N=C/Cc2ccccc2)nc2c1ncn2C1O[C@H](CO)[C@@H](O)[C@H]1O (stereo not given in full)
- -Log EC50 [1]: 8.04
- EC50 [2]: 83.2 µM

SMILES: Nc1nc(N/N=C/c2cccs2)nc2c1ncn2C1O[C@H](CO)[C@@H](O)[C@H]1O (stereo not given in full)
- -Log EC50 [1]: 7.86
- EC50 [2]: 41.7 µM

SMILES: Nc1nc(N/N=C/c2cc(Br)cs2)nc2c1ncn2C1O[C@H](CO)[C@@H](O)[C@H]1O (stereo not given in full)
- -Log EC50 [1]: 8.28
- EC50 [2]: 57.5 µM

SMILES: Nc1nc(N/N=C/c2cccnc2)nc2c1ncn2C1O[C@H](CO)[C@@H](O)[C@H]1O (stereo not given in full)
- -Log EC50 [1]: 7.83
- EC50 [2]: 32.4 µM

SMILES: CC(C)(C)OC(=O)CCc1ccc(/C=N/Nc2nc(N)c3ncn(C4O[C@H](CO)[C@@H](O)[C@H]4O)c3n2)cc1 (stereo not given in full)
- -Log EC50 [1]: 8.52
- EC50 [2]: 12 µM

SMILES: Cc1ccc(/C=N/Nc2nc(N)c3ncn(C4O[C@H](CO)[C@@H](O)[C@H]4O)c3n2)cc1 (stereo not given in full)
- EC50 [2]: 39.8 µM

SMILES: C/C(=N\Nc1nc(N)c2ncn(C3O[C@H](CO)[C@@H](O)[C@H]3O)c2n1)c1ccc(F)cc1 (stereo not given in full)
- -Log EC50 [1]: 8.49
- EC50 [2]: 4.17 µM

SMILES: COc1ccccc1/C=N/Nc1nc(N)c2ncn(C3O[C@H](CO)[C@@H](O)[C@H]3O)c2n1 (stereo not given in full)
- -Log EC50 [1]: 6.86
- EC50 [2]: 12.3 µM

SMILES: Nc1nc(NCCc2ccc(CCC(=O)O)cc2)nc2c1ncn2C1O[C@H](CO)[C@@H](O)[C@H]1O (stereo not given in full)
- -Log EC50 [1]: 7.95
- EC50 [2]: 112 µM

SMILES: Cc1ccccc1/C=N/Nc1nc(N)c2ncn(C3O[C@H](CO)[C@@H](O)[C@H]3O)c2n1 (stereo not given in full)
- -Log EC50 [1]: 7.92
- EC50 [2]: 43.7 µM

SMILES: CC(C)(C)OC(=O)CCc1ccc(CCNc2nc(N)c3ncn(C4O[C@H](CO)[C@@H](O)[C@H]4O)c3n2)cc1 (stereo not given in full)
- -Log EC50 [1]: 8.28
- EC50 [2]: 19.1 µM
